# Test results from PubChem BioAssay (NCI).
#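 Test compounds were applied to cells in 96-well plates for 48 hours at 5 doses. The concentration for full growth arrest is given as TGI.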
# Experiments:
# Test in all cases: growth of human tumour cells (NCI), 48 h
# EKVX NSCLC = test system: EKVX NSCLC
# U251 CNS = test system: U251 CNS
# HOP-92 NSCLC = test system: HOP-92 NSCLC
# M14 melanoma = test system: M14 melanoma
# OVCAR-4 ovarian = test system: OVCAR-4 ovarian
# UACC-257 melanoma = test system: UACC-257 melanoma
# SN12C renal = test system: SN12C renal
# SK-MEL-28 melanoma = test system: SK-MEL-28 melanoma
# BT-549 breast = test system: BT-549 breast
# NCI-H522 lung = test system: NCI-H522 lung
# COLO 205 colon = test system: COLO 205 colon
# A549 NSCLC = test system: A549 NSCLC
# A498 renal = test system: A498 renal
# 786-0 renal = test system: 786-0 renal
# IGROV1 ovarian = test system: IGROV1 ovarian
# OVCAR-8 ovarian = test system: OVCAR-8 ovarian
# PC-3 prostate = test system: PC-3 prostate
# UO-31 renal = test system: UO-31 renal
# HL-60(TB) leukemia = test system: HL-60(TB) leukemia
# K-562 leukemia = test system: K-562 leukemia
# T-47D breast = test system: T-47D breast
# CAKI-1 renal = test system: CAKI-1 renal
# HCT-15 colon = test system: HCT-15 colon
# HCC-2998 colon = test system: HCC-2998 colon
# HT29 colon = test system: HT29 colon
# SR leukemia = test system: SR leukemia
# SF-268 CNS = test system: SF-268 CNS
# HOP-62 NSCLC = test system: HOP-62 NSCLC
# SF-295 CNS = test system: SF-295 CNS
# UACC-62 melanoma = test system: UACC-62 melanoma
# HS 578T breast = test system: HS 578T breast
# RPMI-8226 leukemia = test system: RPMI-8226 leukemia
# SK-MEL-2 melanoma = test system: SK-MEL-2 melanoma
# SNB-19 CNS = test system: SNB-19 CNS
# SW-620 colon = test system: SW-620 colon
# OVCAR-5 ovarian = test system: OVCAR-5 ovarian
# KM12 colon = test system: KM12 colon
# MCF7 breast = test system: MCF7 breast
# ACHN renal = test system: ACHN renal
# MALME-3M melanoma = test system: MALME-3M melanoma
# OVCAR-3 ovarian = test system: OVCAR-3 ovarian
# MDA-MB-435 = test system: MDA-MB-435
# HCT-116 colon = test system: HCT-116 colon
# CCRF-CEM leukemia = test system: CCRF-CEM leukemia
# SK-OV-3 ovarian = test system: SK-OV-3 ovarian
# SK-MEL-5 melanoma = test system: SK-MEL-5 melanoma
# MOLT-4 leukemia = test system: MOLT-4 leukemia
# MDA-N = test system: MDA-N
# NCI-H460 lung = test system: NCI-H460 lung
# NCI/ADR-RES ovarian = test system: NCI/ADR-RES ovarian
# LOX IMVI melanoma = test system: LOX IMVI melanoma
# SNB-75 CNS = test system: SNB-75 CNS
# MDA-MB-231 breast = test system: MDA-MB-231 breast
# NCI-H226 lung = test system: NCI-H226 lung
# NCI-H23 lung = test system: NCI-H23 lung
# DU-145 prostate = test system: DU-145 prostate
# RXF 393 renal = test system: RXF 393 renal
# TK-10 renal = test system: TK-10 renal
# SF-539 CNS = test system: SF-539 CNS
structure (smiles),measurement,setting,value
COc1ccc(C2=Nn3c(nnc3-c3ccccc3)S/C2=C\c2ccc(-c3ccc([N+](=O)[O-])cc3)o2)cc1,TGI,EKVX NSCLC,> 100 µM
same,TGI,U251 CNS,> 100 µM
same,TGI,HOP-92 NSCLC,> 100 µM
same,TGI,M14 melanoma,86.1 µM
same,TGI,OVCAR-4 ovarian,> 100 µM
same,TGI,UACC-257 melanoma,> 100 µM
same,TGI,SN12C renal,> 100 µM
same,TGI,SK-MEL-28 melanoma,> 100 µM
same,TGI,BT-549 breast,> 100 µM
same,TGI,NCI-H522 lung,81.8 µM
same,TGI,COLO 205 colon,70 µM
same,TGI,A549 NSCLC,> 100 µM
same,TGI,A498 renal,> 100 µM
same,TGI,786-0 renal,> 100 µM
same,TGI,IGROV1 ovarian,> 100 µM
same,TGI,OVCAR-8 ovarian,> 100 µM
same,TGI,PC-3 prostate,> 100 µM
same,TGI,UO-31 renal,> 100 µM
same,TGI,HL-60(TB) leukemia,59 µM
same,TGI,K-562 leukemia,88.8 µM
same,TGI,T-47D breast,> 100 µM
same,TGI,CAKI-1 renal,> 100 µM
same,TGI,HCT-15 colon,> 100 µM
same,TGI,HCC-2998 colon,> 100 µM
same,TGI,HT29 colon,90.3 µM
same,TGI,SR leukemia,> 100 µM
same,TGI,SF-268 CNS,> 100 µM
same,TGI,HOP-62 NSCLC,> 100 µM
same,TGI,SF-295 CNS,> 100 µM
same,TGI,UACC-62 melanoma,> 100 µM
same,TGI,HS 578T breast,> 100 µM
same,TGI,RPMI-8226 leukemia,80.2 µM
same,TGI,SK-MEL-2 melanoma,67.6 µM
same,TGI,SNB-19 CNS,> 100 µM
same,TGI,SW-620 colon,> 100 µM
same,TGI,OVCAR-5 ovarian,> 100 µM
same,TGI,KM12 colon,> 100 µM
same,TGI,MCF7 breast,> 100 µM
same,TGI,ACHN renal,> 100 µM
same,TGI,MALME-3M melanoma,> 100 µM
same,TGI,OVCAR-3 ovarian,> 100 µM
same,TGI,MDA-MB-435,51.3 µM
same,TGI,HCT-116 colon,> 100 µM
same,TGI,CCRF-CEM leukemia,32.7 µM
same,TGI,SK-OV-3 ovarian,> 100 µM
same,TGI,SK-MEL-5 melanoma,> 100 µM
same,TGI,MOLT-4 leukemia,76.6 µM
same,TGI,MDA-N,> 100 µM
same,TGI,NCI-H460 lung,> 100 µM
same,TGI,NCI/ADR-RES ovarian,> 100 µM
same,TGI,LOX IMVI melanoma,> 100 µM
Cn1c(N)c(Cc2ccc(Cl)cc2)c(=O)[nH]c1=O,TGI,EKVX NSCLC,> 100 µM
same,TGI,SNB-75 CNS,> 100 µM
same,TGI,HOP-92 NSCLC,> 100 µM
same,TGI,M14 melanoma,> 100 µM
same,TGI,UACC-257 melanoma,> 100 µM
same,TGI,SN12C renal,> 100 µM
same,TGI,SK-MEL-28 melanoma,> 100 µM
same,TGI,BT-549 breast,> 100 µM
same,TGI,NCI-H522 lung,> 100 µM
same,TGI,COLO 205 colon,> 100 µM
same,TGI,A549 NSCLC,> 100 µM
same,TGI,A498 renal,> 100 µM
same,TGI,786-0 renal,> 100 µM
same,TGI,IGROV1 ovarian,> 100 µM
same,TGI,OVCAR-8 ovarian,> 100 µM
same,TGI,MDA-MB-231 breast,> 100 µM
same,TGI,UO-31 renal,> 100 µM
same,TGI,HL-60(TB) leukemia,> 100 µM
same,TGI,K-562 leukemia,> 100 µM
same,TGI,NCI-H226 lung,> 100 µM
same,TGI,T-47D breast,> 100 µM
same,TGI,CAKI-1 renal,> 100 µM
same,TGI,HCT-15 colon,> 100 µM
same,TGI,HT29 colon,> 100 µM
same,TGI,NCI-H23 lung,> 100 µM
same,TGI,DU-145 prostate,> 100 µM
same,TGI,SR leukemia,> 100 µM
same,TGI,SF-268 CNS,> 100 µM
same,TGI,HOP-62 NSCLC,> 100 µM
same,TGI,SF-295 CNS,> 100 µM
same,TGI,UACC-62 melanoma,> 100 µM
same,TGI,HS 578T breast,> 100 µM
same,TGI,RPMI-8226 leukemia,> 100 µM
same,TGI,SK-MEL-2 melanoma,> 100 µM
same,TGI,RXF 393 renal,> 100 µM
same,TGI,SNB-19 CNS,> 100 µM
same,TGI,SW-620 colon,> 100 µM
same,TGI,OVCAR-5 ovarian,> 100 µM
same,TGI,KM12 colon,> 100 µM
same,TGI,MCF7 breast,> 100 µM
same,TGI,ACHN renal,> 100 µM
same,TGI,TK-10 renal,> 100 µM
same,TGI,MALME-3M melanoma,> 100 µM
same,TGI,SF-539 CNS,> 100 µM
same,TGI,OVCAR-3 ovarian,> 100 µM
same,TGI,MDA-MB-435,> 100 µM
same,TGI,HCT-116 colon,> 100 µM
same,TGI,CCRF-CEM leukemia,> 100 µM
same,TGI,SK-OV-3 ovarian,> 100 µM
same,TGI,SK-MEL-5 melanoma,> 100 µM
same,TGI,MOLT-4 leukemia,> 100 µM
same,TGI,MDA-N,> 100 µM
same,TGI,NCI/ADR-RES ovarian,> 100 µM
same,TGI,LOX IMVI melanoma,> 100 µM
COC(=O)C1SC(N(C)c2ccccc2)=NC12c1ccccc1Nc1ccccc12 (stereo not drawn),TGI,EKVX NSCLC,66.3 µM
same,TGI,SNB-75 CNS,84.7 µM
same,TGI,U251 CNS,98.8 µM
same,TGI,HOP-92 NSCLC,59.4 µM
same,TGI,M14 melanoma,38.7 µM
same,TGI,OVCAR-4 ovarian,73.9 µM
same,TGI,UACC-257 melanoma,64 µM
same,TGI,SN12C renal,66.7 µM
same,TGI,SK-MEL-28 melanoma,45.8 µM
same,TGI,BT-549 breast,45.1 µM
same,TGI,NCI-H522 lung,38.5 µM
same,TGI,COLO 205 colon,30.7 µM
same,TGI,A549 NSCLC,87.8 µM
same,TGI,A498 renal,55.6 µM
same,TGI,786-0 renal,94 µM
same,TGI,IGROV1 ovarian,53.1 µM
same,TGI,OVCAR-8 ovarian,67.6 µM
same,TGI,PC-3 prostate,53.9 µM
same,TGI,UO-31 renal,52.3 µM
same,TGI,HL-60(TB) leukemia,37.5 µM
same,TGI,K-562 leukemia,47.7 µM
same,TGI,NCI-H226 lung,51.5 µM
same,TGI,T-47D breast,50 µM
same,TGI,CAKI-1 renal,74.6 µM
same,TGI,HCT-15 colon,49.3 µM
same,TGI,HCC-2998 colon,42.4 µM
same,TGI,HT29 colon,62.2 µM
same,TGI,NCI-H23 lung,35.9 µM
same,TGI,DU-145 prostate,> 100 µM
same,TGI,SR leukemia,43.3 µM
same,TGI,SF-268 CNS,72.5 µM
same,TGI,HOP-62 NSCLC,> 100 µM
same,TGI,SF-295 CNS,50.7 µM
same,TGI,UACC-62 melanoma,32 µM
same,TGI,HS 578T breast,53 µM
same,TGI,RPMI-8226 leukemia,12 µM
same,TGI,SK-MEL-2 melanoma,31.7 µM
same,TGI,RXF 393 renal,> 100 µM
same,TGI,SNB-19 CNS,66.1 µM
same,TGI,SW-620 colon,> 100 µM
same,TGI,OVCAR-5 ovarian,55.2 µM
same,TGI,KM12 colon,66.7 µM
same,TGI,MCF7 breast,81.9 µM
same,TGI,ACHN renal,> 100 µM
same,TGI,TK-10 renal,72.5 µM
same,TGI,MALME-3M melanoma,30.9 µM
same,TGI,SF-539 CNS,38.6 µM
same,TGI,OVCAR-3 ovarian,34.1 µM
same,TGI,MDA-MB-435,40 µM
same,TGI,HCT-116 colon,53.5 µM
same,TGI,CCRF-CEM leukemia,57.7 µM
same,TGI,SK-OV-3 ovarian,> 100 µM
same,TGI,SK-MEL-5 melanoma,26 µM
same,TGI,MOLT-4 leukemia,28.4 µM
same,TGI,MDA-N,57 µM
same,TGI,NCI-H460 lung,27 µM
same,TGI,NCI/ADR-RES ovarian,65.4 µM
same,TGI,LOX IMVI melanoma,50.8 µM
